Measurements as given in patent US20240125768A1, “METHODS FOR MODULATING A SRC-1 CONDENSATE” (ETERN BIOPHARMA (SHANGHAI) CO., LTD., priority 2021, published 2024).
Entries after “also recorded” stand apart in the source; their conditions may differ.

How the values were obtained:
YAP/TEAD4 condensates = test: Live cell imaging of YAP/TEAD condensates; format: cell-based; conditions: H1299 cells co-transfected with YAP5SA, TEAD4-mTagBFP, mNeoGreen-SRC1; 20 μM
Procedure: (§1) Cells were grown on 24-well glass bottom plate (Cellvis, P24-1.5H-N) and images were taken with the Leica TCS SP8 confocal microscopy system using a 100× oil objective (NA=1.4). Cells were imaged on a heated stage(37° C.) and supplemented with warmed (37° C.) humidified air.
(§2) For compounds treatment assay, SF268 cells were co-transfected with YAP5SA, TEAD4-mTagBFP2 and mNeoGreen-SRC1. YAP variant YAP5SA which is insensitive to the upstream Hippo pathway, sequestered YAP in nucleus. To circumvent the limitations brought by red fluorescent proteins, TEAD condensates which have been reported to depend on YAP, were used to characterize YAP/TEAD transcriptional condensates. Six hours after transfection, SF268 cells were seeded on 24-well glass bottom plate (Cellvis, P24-1.5H-N) and compounds were added two hours later. Cells were imaged every 30 mins after EVG or other compounds were added.
(§3) Cells were grown on 24-well glass bottom plate (Cellvis, P24-1.5H-N) and images were taken with the Leica TCS SP8 confocal microscopy system using a 100× oil objective (NA=1.4). Cells were imaged on a heated stage (37° C.) and supplemented with warmed (37° C.) humidified air. […]
(§4) Data was analyzed by images collected from 100 representative fields in each group. The spots quantification was performed based on the number and intensity of the spots through green (mNeoGreen-SRC1) and blue (TEAD4-mTagBFP2) channel. […]

BEAS-2B cell colonies = test: BEAS-2B colonies co-expressing SRC-1 and YAP; format: cell-based, human; conditions: SRC-1 and YAP co-expressed BEAS-2B cell colonies
Excerpt: FIG. 7X illustrates the colonies of BEAS-2B cells overexpressing with both YAP and SRC-1 treated w/o EVG.
To explore whether SRC-1 and YAP cooperate in driving tumorigenesis, normal human lung bronchial epithelium cells (BEAS-2B) was transformed with YAP and/or SRC-1.

H3K27ac = test: ChIP-qPCR of histone modifications at YAP target regions; format: cell-based, human; conditions: SF268 cells
Procedure: FIG. 7L illustrates analysis of indicated histone modifications at YAP targets regions #1 from SF268 cells treated with DMSO or EVG by ChIP-qPCR. Error bars show mean±s.e.m. (n=3), *p<0.05, ***p<0.001
Briefly, cells were crosslinked with 1% formaldehyde (Sigma) in culture medium for 10 min at room temperature, and chromatin from lysed nuclei was sheared to 200-1000 bp fragments using a Bioruptor® Pico (Diagenode SA). ˜50 μg of sheared chromatin and ˜2 μg of antibody were mixed. Antibody/antigen complexes were recovered with ProteinG-Dynabeads (Invitrogen) for 1.5 h at 4° C. Quantitative real-time PCR was carried out with QuantStudio™ 6 Flex Real-Time PCR Systems (Thermofisher Scientific). The amount of immunoprecipitated DNA in each sample was determined as the fraction of the input, and normalized to the IgG control. PCR Primers are listed in Supplementary Table S2.
Chromatin immunoprecipitation antibodies are listed in Supplementary […] Supplementary Methods. […] Quantitative real-time PCR was carried out with QuantStudio™ 6 Flex Real-Time PCR Systems (Thermofisher Scientific). The amount of immunoprecipitated DNA in each sample was determined as the fraction of the input, and normalized to the IgG control.

A549 cells = test: Anti-proliferative effects in SRC-1 knockdown A549 cells; format: cell-based; conditions: SRC-1 knockdown vs control
Procedure: FIG. 7W illustrates the anti-proliferative effects of EVG in SRC1 knockdown and control cells. Data represent mean±s.e.m. (n=3).
After 6 days [or other time period as indicated] culture, cell viability was measured using CellTiter-Glo® Luminescent Cell Viability Assay (Promega, G7572) and DMSO group was used as normalization to calculate half maximal inhibitory concentration (IC50) using Graphpad Prism software.

SRC-1 condensates = molecular target: T1, SRC-1 condensates (Homo sapiens, UniProt Q15788); test: Live cell imaging of SRC-1 condensates; format: cell-based
T1 construct: expressed in transfected cells; host or cells: SF268
T1 sequence (Q15788 whole entry): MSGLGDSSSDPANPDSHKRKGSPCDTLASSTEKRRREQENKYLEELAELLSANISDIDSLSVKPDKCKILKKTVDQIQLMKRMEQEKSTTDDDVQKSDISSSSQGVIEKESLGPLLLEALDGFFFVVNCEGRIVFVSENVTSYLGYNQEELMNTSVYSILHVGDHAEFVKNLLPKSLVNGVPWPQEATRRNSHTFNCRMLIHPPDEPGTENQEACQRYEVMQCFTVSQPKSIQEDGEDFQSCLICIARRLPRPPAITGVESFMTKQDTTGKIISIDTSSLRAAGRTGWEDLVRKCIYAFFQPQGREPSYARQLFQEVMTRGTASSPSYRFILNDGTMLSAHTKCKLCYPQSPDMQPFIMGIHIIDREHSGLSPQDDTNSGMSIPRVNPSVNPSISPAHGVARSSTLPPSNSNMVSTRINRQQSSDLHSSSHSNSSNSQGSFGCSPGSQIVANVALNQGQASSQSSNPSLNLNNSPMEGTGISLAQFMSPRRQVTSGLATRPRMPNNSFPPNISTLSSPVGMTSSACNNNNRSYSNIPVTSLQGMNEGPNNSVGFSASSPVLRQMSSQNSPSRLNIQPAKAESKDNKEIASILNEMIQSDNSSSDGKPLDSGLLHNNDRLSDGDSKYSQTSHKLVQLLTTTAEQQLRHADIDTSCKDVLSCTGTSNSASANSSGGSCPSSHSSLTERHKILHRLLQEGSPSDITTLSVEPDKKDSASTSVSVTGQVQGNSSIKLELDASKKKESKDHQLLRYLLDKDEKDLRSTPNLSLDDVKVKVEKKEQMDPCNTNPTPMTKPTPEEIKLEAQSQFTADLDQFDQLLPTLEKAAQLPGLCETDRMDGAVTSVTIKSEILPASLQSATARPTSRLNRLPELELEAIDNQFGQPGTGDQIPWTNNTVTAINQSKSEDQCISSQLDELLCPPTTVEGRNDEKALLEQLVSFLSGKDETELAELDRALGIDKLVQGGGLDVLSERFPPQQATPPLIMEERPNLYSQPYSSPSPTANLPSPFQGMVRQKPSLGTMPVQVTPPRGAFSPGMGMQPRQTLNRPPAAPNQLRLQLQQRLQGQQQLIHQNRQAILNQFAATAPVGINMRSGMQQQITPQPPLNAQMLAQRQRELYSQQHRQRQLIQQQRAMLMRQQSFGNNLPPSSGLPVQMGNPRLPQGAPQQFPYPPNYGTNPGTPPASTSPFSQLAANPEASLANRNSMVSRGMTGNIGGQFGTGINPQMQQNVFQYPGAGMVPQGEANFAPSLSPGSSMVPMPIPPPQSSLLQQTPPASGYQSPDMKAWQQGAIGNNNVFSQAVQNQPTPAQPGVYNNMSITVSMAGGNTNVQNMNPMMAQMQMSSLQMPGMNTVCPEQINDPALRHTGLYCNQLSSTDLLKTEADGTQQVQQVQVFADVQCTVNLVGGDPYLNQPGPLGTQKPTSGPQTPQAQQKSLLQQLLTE
Procedure: as §1, §2, §3, §4

YAP [1] = test: Anti-YAP immunofluorescence staining in A549 cells (YAP nuclear translocation); format: cell-based; conditions: anti-YAP antibody and DAPI
Excerpt: FIG. 7H illustrates A549 cells treated with DMSO, EVG or PC(Positive compound) were stained with anti-YAP antibody and DAPI. […] Scale bar represents 40 μm.

YAP [2] = test: YAP reporter cell-based screen of FDA-approved drugs (luciferase, qPCR validation); conditions: YAP reporter cell-based screen in a library of FDA-approved drugs
Excerpt: FIG. 7B illustrates high-throughput screening results. 449 FDA-approved compounds were screened and evaluated by the z-factor of cell viability and luciferase activity (Blue dots: screened compounds; red dots: positive compounds). The screening criteria is luciferase z-factor <−4 and cell viability >−4. (Positive compound, PC: Fedratinib)
FIG. 7C illustrates qPCR analysis examining the expression of YAP-targeted CTGF and CYR61 was used to validate candidate positive compounds from the screening. Error bars show mean±s.e.m. (n=2).
FIG. 7D illustrates the qPCR analysis of YAP target genes in SF268 cells treated with DMSO or 20 µM EVG for 24 h. Error bars show mean±s.e.m. (n=3).
YAP binding sites were cloned into the NheI and HindIII sites of the pGL4.76 basic vector (Promega) containing heat shock basal promoter. Luciferase activity was measured using the Renilla-Glo® Luciferase Assay System (Promega). Cell viability was measured using CellTiter-Glo® One Solution Assay (Promega). Relative luciferase activity=luciferase activity/cell viability.
Cells were treated with compounds for indicated periods, then total RNAs were extracted with TRIzol™ Reagent (15596018, Invitrogen) and reverse-transcripted using the High efficient cDNA synthesis master mix (FSQ-301, TOYOBO). Quantitative RT-PCR was performed with […] SYBR® Premix Ex Taq™ (RR420, Takara). […]

## COc1cc2c(cc1Cc1cccc(Cl)c1F)c(=O)c(C(=O)O)cn2[C@H](CO)C(C)C [EVG, 6-[(3-chloro-2-fluorophenyl)methyl]-1-[(2S)-1-hydroxy-3-methylbutan-2-yl]-7-methoxy-4-oxoquinoline-3-carboxylic acid]
YAP/TEAD4 condensates
  YAP/TEAD condensates: remained intact; also recorded: but not the YAP/TEAD4 condensates
BEAS-2B cell colonies
  migratory activity at the outer colony border: dramatically inhibited
H3K27ac
  H3K27ac mark levels at YAP target genes: reducing
A549 cells
  anti-proliferative effects after inducible knockdown of SRC-1: partially resistant
SRC-1 condensates; H1299 cells co-transfected with YAP5SA, TEAD4-mTagBFP, mNeoGreen-SRC1, 20 μM
  SRC-1 condensates / SRC1 phase separation (LLPS): impaired; also recorded: selectively disrupted
SRC-1 condensates; H1299 cells expressing either mNeoGreen or mScarlet labeled SRC-1, time course
  nuclear SRC-1 puncta formation: impaired the LLPS of SRC-1 in time-dependent manner; also recorded: suppressed
YAP [1]
  YAP nuclear translocation: remained in nucleus; also recorded: unaffected
YAP [2]
  YAP activity: suppress YAP activity
